Measurements from patent EP0415999B1, “COMPOSITIONS HAVING USE AS TREATMENT OF PSORIASIS AND NEUROP[…]” (THE UNITED STATES OF AMERICA as represented by the …, priority 1988, dated 1998).

Tested on: volunteers who tested negative or HIV antibodies
Assay: Overall neuropsychologic and clinical observations during seven-day peptide administration
Format: in vivo, human
Experimental: As indicated in the Table, symptoms of substance abuse, childhood dyslexia and depression were ameliorated. The peptide having the formula: [formula] was given at dosage of 0.033 mg/kg/da to 0.133 mg/kg/da for seven days. As indicated in the Table, the unexpected effects observed in these volunteers who tested negative or HIV antibodies were the following: • 1. […] This effect maintained for one month of follow-up.

Structure (SMILES): C[C@@H](N)C(=O)N[C@@H](CO)C(=O)N[C@H](C(=O)N[C@H](C(=O)N[C@H](C(=O)N[C@@H](CC(N)=O)C(=O)N[C@@H](Cc1ccc(O)cc1)C(=O)N[C@H](C(N)=O)[C@@H](C)O)[C@@H](C)O)[C@@H](C)O)[C@@H](C)O [Peptide T]
- scores on memory and attention components of standard neuropsychologic tests (0.033 mg/kg/da to 0.133 mg/kg/da for seven days, remitted after Peptide T was discontinued): Incremental scores
- physical activity (all subjects, while on drug, did not continue after drug discontinuance): increases in physical activity
- fatigue, energy and vigor (reported by subjects) (all subjects, effect abated off drug): decreased fatigue and increased energy and vigor
- mood scores on depression scales (two research volunteers with prior histories of depression, effect maintained for one month of follow-up): Improved mood scores
